± gives the expanded uncertainty stated by the source.
Test: xn = mol fraction of the nth substance listed
Conditions: 298.15 K, 101.33 kPa, Liquid

ClCCCCCCl [1,5-dichloropentane] + CCOC(C)=O
Conditions	mass density [kg/m3]
x2 = 0.078	1082.84 ± 0.65
x2 = 0.1498	1071.08 ± 0.61
x2 = 0.2187	1059.41 ± 0.58
x2 = 0.2869	1047.48 ± 0.54
x2 = 0.3508	1035.92 ± 0.51
x2 = 0.4146	1024.01 ± 0.48
x2 = 0.5355	1000.44 ± 0.41
x2 = 0.5943	988.46 ± 0.41
x2 = 0.6527	976.18 ± 0.41
x2 = 0.7039	965.12 ± 0.41
x2 = 0.7557	953.57 ± 0.42
x2 = 0.8066	941.94 ± 0.43
x2 = 0.8572	930.03 ± 0.44
x2 = 0.9059	918.17 ± 0.46
x2 = 0.9527	906.46 ± 0.47

CCOC(=O)CC [ethyl propanoate] + ClCCCl
Conditions	mass density [kg/m3]
x1 = 0.0458	1221.49 ± 0.78
x1 = 0.0867	1201.01 ± 0.74
x1 = 0.131	1179.33 ± 0.7
x1 = 0.1761	1158.4 ± 0.66
x1 = 0.225	1136.63 ± 0.62
x1 = 0.2733	1116.14 ± 0.58
x1 = 0.3272	1094.1 ± 0.55
x1 = 0.3811	1073.16 ± 0.52
x1 = 0.4371	1052.35 ± 0.49
x1 = 0.4963	1031.27 ± 0.47
x1 = 0.5583	1010.27 ± 0.45
x1 = 0.6235	989.23 ± 0.46
x1 = 0.69	968.72 ± 0.49
x1 = 0.7598	948.13 ± 0.52
x1 = 0.835	927.04 ± 0.56
x1 = 0.9131	906.11 ± 0.6

ClCCCCCCCl [1,6-dichlorohexane] + CCOC=O
Conditions	mass density [kg/m3]
x2 = 0.1021	1054.55 ± 1.2
x2 = 0.1921	1045.86 ± 1.2
x2 = 0.2781	1036.7 ± 1.2
x2 = 0.357	1027.68 ± 1.3
x2 = 0.4266	1019.06 ± 1.3
x2 = 0.4923	1010.37 ± 1.3
x2 = 0.5555	1001.35 ± 1.3
x2 = 0.6677	983.71 ± 1.4
x2 = 0.7169	975.18 ± 1.4
x2 = 0.7649	966.4 ± 1.4
x2 = 0.8091	957.78 ± 1.4
x2 = 0.8515	949.08 ± 1.4
x2 = 0.8915	940.41 ± 1.4
x2 = 0.929	931.82 ± 1.4
x2 = 0.9647	923.23 ± 1.5

ClCCCCl [1,3-dichloropropane] + CCOC=O
Conditions	mass density [kg/m3]
x2 = 0.076	1161.06 ± 0.88
x2 = 0.1432	1145.36 ± 0.91
x2 = 0.2073	1130.02 ± 0.95
x2 = 0.2696	1114.94 ± 0.98
x2 = 0.3338	1099.05 ± 1
x2 = 0.394	1083.9 ± 1.1
x2 = 0.4558	1068.05 ± 1.1
x2 = 0.5152	1052.57 ± 1.1
x2 = 0.5731	1037.18 ± 1.2
x2 = 0.6297	1021.91 ± 1.2
x2 = 0.6862	1006.34 ± 1.2
x2 = 0.7413	990.94 ± 1.3
x2 = 0.794	975.98 ± 1.3
x2 = 0.8475	960.54 ± 1.4
x2 = 0.8994	945.31 ± 1.4
x2 = 0.9494	930.3 ± 1.4

ClCCCCCCl [1,5-dichloropentane] + CCOC=O
Conditions	mass density [kg/m3]
x2 = 0.0925	1084.33 ± 0.76
x2 = 0.173	1074.06 ± 0.82
x2 = 0.2529	1063.2 ± 0.88
x2 = 0.3276	1052.35 ± 0.94
x2 = 0.3957	1041.79 ± 0.99
x2 = 0.4618	1031.02 ± 1
x2 = 0.5249	1020.19 ± 1.1
x2 = 0.5835	1009.55 ± 1.1
x2 = 0.6395	998.87 ± 1.2
x2 = 0.6917	988.42 ± 1.2
x2 = 0.7415	977.92 ± 1.3
x2 = 0.7896	967.31 ± 1.3
x2 = 0.836	956.62 ± 1.3
x2 = 0.8791	946.24 ± 1.4
x2 = 0.9211	935.6 ± 1.4
x2 = 0.9595	925.4 ± 1.4

From the NIST ThermoML archive (doi:10.1016/j.jct.2005.03.020)
